# Measured values as given in US20150309031A2, “COMPOSITIONS AND METHODS FOR PROGNOSIS AND TREATMENT OF CANCER” (NOVAZOI THERANOSTICS, priority 2013, published 2015).
# How the values were obtained:
# Assay type in all cases: cell-based
# MDA-MB-231 (231) cells = test: subG1 (hypodiploid) fraction by flow cytometry, 231 cells
# Description: (§1) Trypsinized cells were resuspended in PBS at 10^6 cells/ml. Cells were then fixed by addition of ice-cold 70% ethanol. Ethanol-fixed cells were kept overnight at 4° C. before staining. Cells were pelleted and washed twice with PBS. Cell pellets were incubated for an hour at room temperature with mouse anti-MPM-2 antibody (Millipore, Mass., USA), followed by 1 h incubation with Alexa-488 anti-mouse secondary antibody (Life Technologies, NY, USA). Finally cells were washed, pelleted and resuspended in propidium iodide-containing isotonic buffer (0.1 mg/mL) and 0.5% Triton X-100. Cell cycle distribution was determined by flow cytometry using an LSR Fortessa Flow cytometer (BD Biosciences, CA, USA) and analyzed using Flowjo software (Tree Star, OR, USA). […] The duration, highest degree, and rapidity of onset of MA varied between drugs, drug concentrations, and cell lines (FIGS. 2A, 2B). In general, the maximum MA achieved was less pronounced in Nos- and PJ-treated cells (FIGS. 2A, 2B). Drug-induced onset of MA was corroborated by substantial increases in cyclin B1 levels in all cell lines (FIG. 2C). […] Instances where the subG1 fraction was elevated without cleaved caspase-3 may either represent caspase-independent cell death or the presence of hypodiploid cells whose fate is unclear.
# HeLa cells [1] = test: subG1 (hypodiploid) fraction by flow cytometry, HeLa cells
# Description: as §1
# [2] = system: MDA-MB-231 (231), PC3, and HeLa cells; test: Mitotic arrest (MA) by flow cytometry (MPM2/PI), across cell lines; conditions: coarse-grained categories
# Description: Trypsinized cells were resuspended in PBS at 10^6 cells/ml. Cells were then fixed by addition of ice-cold 70% ethanol. Ethanol-fixed cells were kept overnight at 4° C. before staining. Cells were pelleted and washed twice with PBS. Cell pellets were incubated for an hour at room temperature with mouse anti-MPM-2 antibody (Millipore, Mass., USA), followed by 1 h incubation with Alexa-488 anti-mouse secondary antibody (Life Technologies, NY, USA). Finally cells were washed, pelleted and resuspended in propidium iodide-containing isotonic buffer (0.1 mg/mL) and 0.5% Triton X-100. Cell cycle distribution was determined by flow cytometry using an LSR Fortessa Flow cytometer (BD Biosciences, CA, USA) and analyzed using Flowjo software (Tree Star, OR, USA).
# To evaluate the impact of putative declustering drugs on cell cycle progression and hypodiploidy (<2N DNA content, which may indicate apoptotic cells), MDA-MB-231 (231), PC3, and HeLa cells were treated with different concentrations of declustering drugs, stained with propidium iodide, labeled with anti-MPM2 antibody, and then assessed by flow cytometry at multiple time points over 48 h. […] The duration, highest degree, and rapidity of onset of MA varied between drugs, drug concentrations, and cell lines (FIGS. 2A, 2B). In general, the maximum MA achieved was less pronounced in Nos- and PJ-treated cells (FIGS. 2A, 2B). […]
# HeLa cells [3] = test: Centrosome amplification (CA) by microscopy, HeLa cells
# Description: Consequently, CA was assessed in cultures treated with different concentrations of declustering drugs for 6, 12, 18, or 24 h and untreated controls via microscopy. […] The peak percent CA detected over 24 h is shown in FIG. 6 (only statistically significant (P<0.05) increases over control values are represented in the Figures). Representative confocal micrographs of CA in interphase and mitotic cells, both control and drug treated, are depicted in FIG. 7. […] To better understand the “potency” of drug-induced CA with time, the average fold change in CA over controls over 24 h was assessed (FIG. 5A), whereby the extent of CA across time points (i.e., 6, 12, 18, and 24 h) was averaged and then divided by the extent of CA in control (i.e., 0 h). […] For Nos and BN, there was no major difference in CA levels in interphase versus mitotic cells.
# [4] = system: mammary fibrocystic (MCF10A) cells; test: subG1 (hypodiploid) fraction by flow cytometry, MCF10A cells; conditions: for Peak subG1 percent over 48 h: MCF10A
# MCF10A cells = test: Centrosome amplification (CA) by microscopy, MCF10A cells; conditions: interphase and mitotic cells, over 24 h
# Description: Consequently, CA was assessed in cultures treated with different concentrations of declustering drugs for 6, 12, 18, or 24 h and untreated controls via microscopy. Centrosomes were identified by γ-tubulin and centrin-2 colocalization at discrete foci. […] The peak percent CA detected over 24 h is shown in FIG. 6 (only statistically significant (P<0.05) increases over control values are represented in the Figures). Representative confocal micrographs of CA in interphase and mitotic cells, both control and drug treated, are depicted in FIG. 7. No significant correlations between the degree of CA (FIG. 5A) and the expression levels of PLK4, Cyclin E, and Aurora A were found (FIG. 4).
# To determine whether the CA-inducing activity of declustering drugs is restricted to cancer cells, two non-malignant cell lines, mammary fibrocystic (MCF10A) cells and adult human dermal fibroblasts were treated with these drugs. Neither one of RBN, GF or PJ induced CA or cell death (Table 8) in these cell lines. […] In comparison, 10 and 25 μM RBN increased peak CA over controls in interphase cells (p<0.001 and p=0.001, respectively), with the lower concentration dramatically augmenting peak CA to 56% of cells versus 15% for the higher dose (FIG. 9B). Only 10 but not 25 μM RBN increased the extent of CA in mitotic cells, and this upregulation was only slight (10%, p=0.041).
substance,measurement,setting,value
reduced bromonoscapine [RBN],Peak subG1 percent over 48 h,MDA-MB-231 (231) cells; 10 μM,47.0%
same,Peak subG1 percent over 48 h,MDA-MB-231 (231) cells; 25 μM,80.8%
same,maximum subG1 fraction relative to control,MDA-MB-231 (231) cells; 25 μM,25 × control
same,Peak subG1 percent over 48 h,HeLa cells [1]; 10 μM,54.1%
same,maximum subG1 fraction relative to control,HeLa cells [1]; 10 μM,9 × control
same,Peak subG1 percent over 48 h,HeLa cells [1]; 25 μM,75.6%
same,"peak MA (MA:HR), cells in MA",[2],≥ 30%
same,peak extent of CA in interphase cells,"HeLa cells [3]; interphase, 10 μM",30.7%
same,peak / final extent of CA in interphase cells,"HeLa cells [3]; interphase, 25 μM",48.1%
same,"cells having CA, mitotic cells",HeLa cells [3]; 10 μM,78%
same,"fold increase of CA, mitotic cells",HeLa cells [3]; 10 μM,approximately 40 fold
same,"cells having CA, mitotic cells",HeLa cells [3]; 25 μM,42%
same,"fold increase of CA, mitotic cells",HeLa cells [3]; 25 μM,~20 fold
same,change of peak subG1 percent compared to controls (in words),[4]; MCF10A cells,did increase peak SubG1 in MCF10A cells compared to controls
same,Peak subG1 percent over 48 h,[4]; 10 μM,36.4%
same,Peak subG1 percent over 48 h,[4]; 25 μM,44.0%
same,change of CA over control levels (in words),MCF10A cells,significantly increased the peak extent of CA in interphase and mitotic MCF10A cells
